The source of these data is PMC12071706, “Impact of SARS-CoV-2 RBM Mutations N501Y and E484K on ACE2 Binding: A Combined Computational and Experimental Study” (International Journal of Molecular Sciences, 2025).

The target of this test is T1, human ACE2 protein (hACE2) (Homo sapiens, UniProt Q9BYF1).
T1 construct: His; purchased AbClonal (Woburn, MA, USA) RP01277; host or cells: HEK293
Description: biochemical. The test is classed as binding.

T1 sequence (Q9BYF1 18-740): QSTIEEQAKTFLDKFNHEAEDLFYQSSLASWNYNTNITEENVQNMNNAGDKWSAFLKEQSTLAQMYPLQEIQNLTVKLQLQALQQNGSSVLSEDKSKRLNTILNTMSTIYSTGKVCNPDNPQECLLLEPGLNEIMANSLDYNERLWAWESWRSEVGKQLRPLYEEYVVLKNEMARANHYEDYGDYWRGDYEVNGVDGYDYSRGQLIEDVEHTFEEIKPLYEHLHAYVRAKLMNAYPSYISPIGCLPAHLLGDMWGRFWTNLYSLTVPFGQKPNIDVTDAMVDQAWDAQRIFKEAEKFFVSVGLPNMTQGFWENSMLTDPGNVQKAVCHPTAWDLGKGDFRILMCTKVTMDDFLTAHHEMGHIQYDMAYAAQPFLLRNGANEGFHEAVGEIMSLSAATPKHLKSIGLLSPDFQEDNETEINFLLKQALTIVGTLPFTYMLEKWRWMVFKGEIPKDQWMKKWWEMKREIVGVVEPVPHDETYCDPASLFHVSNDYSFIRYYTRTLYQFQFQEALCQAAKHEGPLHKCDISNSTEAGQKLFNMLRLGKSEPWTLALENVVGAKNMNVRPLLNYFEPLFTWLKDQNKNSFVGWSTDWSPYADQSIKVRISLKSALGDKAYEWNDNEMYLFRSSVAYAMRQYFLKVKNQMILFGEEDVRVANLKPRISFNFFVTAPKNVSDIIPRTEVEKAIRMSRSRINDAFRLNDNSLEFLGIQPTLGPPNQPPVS

Turning to `CC(=O)NCC(=O)N[C@H](C(=O)N[C@@H](CCCCN)C(=O)NCC(=O)N[C@@H](Cc1ccccc1)C(=O)N[C@@H](CC(N)=O)C(=O)N[C@@H](CS)C(=O)N[C@@H](Cc1ccc(O)cc1)C(=O)N[C@@H](Cc1ccccc1)C(=O)N1CCC[C@H]1C(=O)N[C@@H](CC(C)C)C(=O)N[C@@H](CCC(N)=O)C(=O)N[C@@H](CO)C(=O)N[C@@H](Cc1ccc(O)cc1)C(=O)NCC(=O)N[C@@H](Cc1ccccc1)C(=O)N[C@@H](CCC(N)=O)C(=O)N1CCC[C@H]1C(=O)N[C@H](C(=O)N[C@@H](CC(N)=O)C(=O)NCC(N)=O)[C@@H](C)O)C(C)C` [Zeta], binding was characterised by a dissociation constant (Kd) of 810 ± 60 nM. Further, under “pH 7.4”, the “N (stoichiometry)” value is 0.76 ± 0.03; the “fold increase in binding affinity” value came to 5.8 fold; the “thermodynamic signature (enthalpic vs entropic contribution)” value is “the enthalpic and entropic contributions are of comparable magnitude within the experimental error”; the ΔGITC was -8.31 ± 0.07 kcal/mol. Besides, where the note is “pH 7.4”, the ΔHITC is -4.26 ± 0.24 kcal/mol and the “−TΔSITC” value is -4.06 ± 0.25 kcal/mol.

Compound `CC(=O)NCC(=O)N[C@H](C(=O)N[C@@H](CCCCN)C(=O)NCC(=O)N[C@@H](Cc1ccccc1)C(=O)N[C@@H](CC(N)=O)C(=O)N[C@@H](CS)C(=O)N[C@@H](Cc1ccc(O)cc1)C(=O)N[C@@H](Cc1ccccc1)C(=O)N1CCC[C@H]1C(=O)N[C@@H](CC(C)C)C(=O)N[C@@H](CCC(N)=O)C(=O)N[C@@H](CO)C(=O)N[C@@H](Cc1ccc(O)cc1)C(=O)NCC(=O)N[C@@H](Cc1ccccc1)C(=O)N[C@@H](CCC(N)=O)C(=O)N1CCC[C@H]1C(=O)N[C@H](C(=O)N[C@@H](Cc1ccc(O)cc1)C(=O)NCC(N)=O)[C@@H](C)O)C(C)C` [Beta/Gamma] had an equilibrium dissociation constant (Kd) of 310 ± 80 nM.
